Patent US6949529B2, “Compositions containing lysophosphotidic acids which inhibit apoptosis and uses thereof” (Sky High, LLC, priority 1997, dated 2005)

Tests used:
[1] = system: rat neonatal cardiomyocytes; assay: Cardiomyocyte death induced by ischemia and reperfusion (in vitro model); type: cell-based; conditions: mixture with PEG (FIG. 14)
Method: Cardiomyocytes were prepared from hearts of day-old Sprague Dawley rats by trypsinization and mechanical disaggregation (Simpson, (1985)) Circ. Res. 56:884-894. The cells were resuspended in MEM, 1×MEM vitamins (Gibco), 5% fetal bovine serum and 50 U/ml penicillin-G and pre-plated for 30 minutes to reduce contamination of non-myocytes. The non-adherent cardiac myocytes were separated and seeded in 2 ml in 35 mm dishes at a density of 3.5×10^5 viable cells per ml. The cells were allowed to adhere for 16-24 hours in a 37° C./5% CO2 humidified incubator.
For serum deprivation, the medium was replaced with fresh serum-free RPMI, whereas serum/glucose deprivation was performed using glucose-free RPMI. The induction of cell death by adriamycin or C2-ceramide was accomplished by the addition of the agent prepared in serum-free RPMI. As a model of ischemia, cultures in serum and glucose free RPMI were placed in an airtight chamber and the latter was continuously perfused with oxygen-free gas overlay of 95% N2/5% CO2 for 8 hours at 37° C. […]
Because cardiomyocytes are terminally differentiated non-dividing cells, viability was determined by measurement of the decrease in the relative number of adherent cells. […] Adherent cardiomyocytes were collected from culture dishes using 0.25% Trypsin/0.05% EDTA and counted on Coulter Counter ZM and Coulter Channelyzer 256.

[2] = system: C3H/10T½ cells; assay: Effect of proteins on anti-apoptotic activity of soy LPA, C3H/10T½ cell assay; type: cell-based; conditions: 1:10 soy-LPA to protein (weight:weight), 24 h serum deprivation
Method: Soy derived LPA (soy-LPA) (Avanti® Polar Lipids, Inc., Alabaster, Ala.) was stored in an organic solution and was dried immediately prior to assay using a Speed Vac (Savant Instruments, Hicksville, N.Y.). Tested proteins were resuspended at 10 mg/mL in a bicarbonate buffered saline/EDTA solution (50 mM NH4HCO3, 104 mM NaCl, 250 μM EDTA) prior to being added to dried soy-LPA at a 1:10 soy-LPA to protein (weight:weight) ratio. The mixture was then sonicated for 5 minutes using a high power 80 Watt sonication bath (Laboratory Supplies Co., Hicksville, N.Y.). Following sonication, concentrated LPA/protein mixtures were left standing for 15 minutes at room temperature prior to dilution in cell culture assay media.
The effect of various proteins on the ability of LPA to protect serum-starved cells from apoptotic death was measured using the C3H/10T½ cell assay, performed as described in Example 2, above. Log phase cells were seeded in 60 mm Petri dishes at 175-350 cells per cm^2 and maintained in Basal Medium Eagle (BME) supplemented with 10% fetal calf serum (Hyclone, Logan, Utah). At time zero, serum containing media was replaced with sterile filtered BME containing the LPA/protein mixture to be tested. After 24 hours of treatment, serum deprived release (SDR) cells (the apoptotic cell population) and adherent (ADH) cells were separated and counted using an electronic cell counter (Coulter Corporation, Hialea, Fla.). SDR cells were counted with the lower threshold setting at 6.3 μm and were defined as the apoptotic cells dying in response to cultivation in serum-free-media. Approximately 95% of the SDR cells are confirmed to be apoptotic as previously shown by size, ultrastructure and DNA fragmentation analysis. Adherent cells were removed by treatment with a Hanks' balanced salt solution containing 0.05% trypsin and 0.53 mM EDTA and were counted with the lower threshold setting at 11.01 μm. All samples were tested in triplicate and serum-deprived controls (BME only) were assayed at both the beginning and end of each experiment.
The effects of various proteins alone or in combination with LPA are expressed as percent cells saved from apoptosis. When C3H10T½ cells were treated with 10 μg/mL soy LPA without protein, 8.0% of the cells were saved. The degree of protection from apoptosis afforded by protein alone, added to the medium at a concentration of 0.1% (wt/vol.), varied from 0.9% to 27.7% of cells saved from apoptosis. An unusually high percentage of cells were protected from serum-starvation-induced apoptosis by casein. This value may be artificially high, as casein preparations have been known to contain growth factors, including insulin-like growth factors (IGF) IGF1 and IGF2. IGF2 is a mitogen that can mask the serum deprivation-induced apoptotic response in these cells.

[3] = Electrophoresis radiobinding assay on native polyacrylamide gel; type: binding; conditions: 1 nM labeled 18:1-LPA/45 μg protein, 37° C., 60 minutes
Method: Electrophoresis radiobinding assay. Proteins were analyzed on native polyacrylamide gels following incubation with ^3H-labeled 18:1-LPA. ^3H-labeled lysophosphatidic acid (1-oleyl) (DuPont NEN Products, Boston, Mass.) was added to tested proteins at 1 nM labeled 18:1-LPA/45 μg protein. Mixtures were incubated in a bicarbonate buffered saline/EDTA solution at 37° C. for 60 minutes. Incubated samples were mixed with native gel sample buffer (312 mM Tris pH 6.8, 50% glycerol, 0.05% bromophenol blue) and loaded entirely onto an 8% discontinuous native polyacrylamide gel. Following electrophoresis, proteins were fixed into the gels using an aqueous solution consisting of glacial acetic acid, 10% (vol/vol) and methanol 30% (vol./vol.) solution. Fixed gels were then incubated for 60 minutes in autoradiography enhancer (EN^3HANCE, DuPont NEN Products, Boston, Mass.), and dried onto 3M chromatography paper (Whatman, Clifton, N.J.) and exposed to autoradiography film (X-Omat, Kodak, Rochester, N.Y.) for 72 hours at −80° C.

[4] = Size shift assay on Superdex S75 column; type: binding; conditions: soy LPA with 0.5 μCi ^3H-labeled 18:1-LPA, with test protein
Method: Size shift assay. Size analysis of LPA both with and without protein was performed using a Superdex® S75 column (Pharmacia Biotech, Uppsala, Sweden). Soy LPA was combined in a chloroform solution with 0.5 μCi ^3H-labeled 18:1-LPA (DuPont NEN Products, Boston, Mass.), dried under vacuum and resuspended by sonication in a buffered solution (50 mM ammonium bicarbonate, 154 mM sodium chloride, pH 8.0) in the presence or absence of test protein. The ammonium bicarbonate/sodium chloride solution was used as the mobile phase at a flow rate of 1 ml/min. One-minute fractions were collected for 30 minutes following sample injection. Fractions were counted in scintillant solution using a liquid scintillation counter (Beckman Instruments, Irvine, Calif.). Calibration was performed using a standard solution containing purified proteins (BioRad, Hercules, Calif.).

Compound	cardiomyocyte death induced by ischemia and reperfusion [1]	Protein + 10 μg/mL Soy LPA, percent cells saved from apoptosis [2] [%]	Detectable Acrylamide Gel ^3H LPA Binding (+/−) [3]	3H-LPA Size Shift Analysis (+/−) [4]
CCCCCCCC/C=C\CCCCCCCC(=O)OCC(O)COP(=O)(O)O (stereo not drawn) [18:1 LPA, oleoyl-lysophosphatidic acid]	equally protect			
Albumin (Fatty Acid Depleted): fatty acid depleted (FAD) bovine serum albumin (BSA)		58.7	bind to 18:1-LPA	most of the LPA was bound to BSA
Cytochrome C: source bovine heart		54.6		LPA does not bind to this protein
